For data set [1], the system named is Mus musculus. The experiment in a line: Decrease in plasma TG level in human Apo-A-I transgenic C57BL/6 mouse at 0.5 mg/kg, po. Format: functional. Also on record: scale not given: the % may be the effect or the level left.
Another data set deals with Canis familiaris. The experiment in a line: Plasma concentration in Beagle dog at 3 mg/kg, po. The format is ADME, organism-based, Canis lupus familiaris. Details: dose 3 mg/kg, route oral. The settings on record: in vivo.
Data set [2] is described as follows: Bioavailability in Wistar rat at 3 mg/kg, po. Format: ADME, organism-based. The settings on record: in vivo.
Data set [3] in a line: Volume of distribution in Wistar rat at 2.7 mg/kg, iv. The settings on record: in vivo, read-out: Vdss. Format: ADME, organism-based. Also on record: dose 2.7 mg/kg, route intravenous.
The nature of data set [4]: Half life in Wistar rat plasma at 2.7 mg/kg, iv. Format: ADME, organism-based. Details: dose 2.7 mg/kg, route intravenous.
The target in data set [5] is T1, Peroxisome proliferator-activated receptor delta (Mus musculus, UniProt P35396).
T1 sequence (P35396 whole entry): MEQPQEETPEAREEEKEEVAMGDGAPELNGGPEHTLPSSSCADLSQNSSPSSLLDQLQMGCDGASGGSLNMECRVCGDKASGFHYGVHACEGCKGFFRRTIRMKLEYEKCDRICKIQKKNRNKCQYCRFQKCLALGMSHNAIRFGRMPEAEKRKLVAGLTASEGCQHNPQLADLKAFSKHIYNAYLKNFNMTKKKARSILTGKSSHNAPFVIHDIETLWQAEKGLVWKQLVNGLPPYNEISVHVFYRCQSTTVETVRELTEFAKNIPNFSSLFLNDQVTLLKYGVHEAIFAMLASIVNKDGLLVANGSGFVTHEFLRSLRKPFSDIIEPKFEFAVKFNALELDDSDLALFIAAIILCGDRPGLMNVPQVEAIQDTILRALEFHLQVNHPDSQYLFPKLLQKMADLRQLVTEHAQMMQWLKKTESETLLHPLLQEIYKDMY
Description: Agonist potency at mouse PPARdelta

The test system of data set [6] is Mus musculus. The experiment in a line: Decrease in LDL cholesterol level in human Apo-A-I transgenic C57BL/6 mouse at 0.5 mg/kg, po. The format is functional. Details: scale not given: the % may be the effect or the level left.
Data set [7] relates to Mus musculus. In words: Decrease in plasma TG level in human Apo-A-I transgenic C57BL/6 mouse at 1 mg/kg, po. Format: functional. Details: scale not given: the % may be the effect or the level left.
For data set [8], the system named is Mus musculus. The experiment in a line: Decrease in LDL cholesterol level in human Apo-A-I transgenic C57BL/6 mouse at 1 mg/kg, po. Format: functional. Also on record: scale not given: the % may be the effect or the level left.
The nature of data set [9]: Plasma concentration in Wistar rat at 3 mg/kg, po after 1.5 hrs. The format is ADME, organism-based. Details: dose 3 mg/kg, route oral.
Data set [10] has as its system Mus musculus. In words: Increase in HDL cholesterol level in human Apo-A-I transgenic C57BL/6 mouse at 1 mg/kg, po. The format is functional.
In data set [11] the test system is Mus musculus. The experiment in a line: Decrease in plasma TG level in human Apo-A-I transgenic C57BL/6 mouse at 5 mg/kg, po. The format is functional. Also on record: scale not given: the % may be the effect or the level left.
For data set [12], the target named is T2, Peroxisome proliferator-activated receptor delta (Homo sapiens, UniProt Q03181).
T2 sequence (Q03181 whole entry): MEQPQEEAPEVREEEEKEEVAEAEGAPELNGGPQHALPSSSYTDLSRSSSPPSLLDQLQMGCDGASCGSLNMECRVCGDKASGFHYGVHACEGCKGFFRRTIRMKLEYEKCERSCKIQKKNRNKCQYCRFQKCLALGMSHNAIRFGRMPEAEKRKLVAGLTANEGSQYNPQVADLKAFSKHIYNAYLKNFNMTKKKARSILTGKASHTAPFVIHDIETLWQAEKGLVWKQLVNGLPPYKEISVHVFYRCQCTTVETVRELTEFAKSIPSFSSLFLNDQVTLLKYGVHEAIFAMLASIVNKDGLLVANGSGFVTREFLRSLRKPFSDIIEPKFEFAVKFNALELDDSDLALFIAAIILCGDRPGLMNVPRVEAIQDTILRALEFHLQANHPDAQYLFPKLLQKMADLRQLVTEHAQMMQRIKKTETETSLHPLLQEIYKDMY
Description: Agonist potency at PPARdelta in CV1 cells by cell based transient transfection assay

Data set [13] deals with T3, Peroxisome proliferator-activated receptor alpha (Homo sapiens) (UniProt Q07869).
T3 sequence (whole entry): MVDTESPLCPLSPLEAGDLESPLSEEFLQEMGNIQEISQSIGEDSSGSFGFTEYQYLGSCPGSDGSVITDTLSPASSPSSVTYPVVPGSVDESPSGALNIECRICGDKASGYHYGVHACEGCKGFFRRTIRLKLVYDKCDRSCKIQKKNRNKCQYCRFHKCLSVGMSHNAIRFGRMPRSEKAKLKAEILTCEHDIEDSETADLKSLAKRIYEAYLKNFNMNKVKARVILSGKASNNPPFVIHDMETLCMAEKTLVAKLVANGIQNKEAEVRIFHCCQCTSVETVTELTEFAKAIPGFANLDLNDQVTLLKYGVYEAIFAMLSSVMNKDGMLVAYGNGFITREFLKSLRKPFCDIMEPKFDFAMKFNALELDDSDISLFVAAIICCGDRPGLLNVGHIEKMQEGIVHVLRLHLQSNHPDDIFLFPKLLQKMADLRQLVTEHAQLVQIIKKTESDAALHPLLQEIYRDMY
The experiment in a line: Agonist potency at PPARalpha expressed in CV1 cells relative to GW-590735. The format is functional, cell-based. The settings on record: CV-1.

Data set [14] deals with Mus musculus. The experiment in a line: Decrease in LDL cholesterol level in human Apo-A-I transgenic C57BL/6 mouse at 5 mg/kg, po. Format: functional. Details: scale not given: the % may be the effect or the level left.
Data set [15] concerns the target T4, Peroxisome proliferator-activated receptor alpha (Mus musculus, UniProt P23204).
T4 sequence (P23204 whole entry): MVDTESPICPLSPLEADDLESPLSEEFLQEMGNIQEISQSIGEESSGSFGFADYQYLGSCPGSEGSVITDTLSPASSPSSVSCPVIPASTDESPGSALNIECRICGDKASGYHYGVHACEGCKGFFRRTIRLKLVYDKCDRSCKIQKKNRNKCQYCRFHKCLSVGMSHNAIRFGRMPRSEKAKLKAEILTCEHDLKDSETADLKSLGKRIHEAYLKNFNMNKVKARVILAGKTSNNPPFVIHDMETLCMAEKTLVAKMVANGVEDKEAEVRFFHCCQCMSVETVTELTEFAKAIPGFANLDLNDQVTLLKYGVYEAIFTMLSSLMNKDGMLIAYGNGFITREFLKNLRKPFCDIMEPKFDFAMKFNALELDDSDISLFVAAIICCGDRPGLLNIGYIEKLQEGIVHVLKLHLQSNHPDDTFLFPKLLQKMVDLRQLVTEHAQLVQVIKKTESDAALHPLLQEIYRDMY
Description: Agonist potency at mouse PPARalpha

Data set [16] can be described thus: Bioavailability in Beagle dog at 3 mg/kg, po. The settings on record: in vivo. Format: ADME, organism-based, Canis lupus familiaris.
The nature of data set [17]: Plasma clearance in Wistar rat at 2.7 mg/kg, iv. Format: ADME, organism-based. Details: dose 2.7 mg/kg, route intravenous.
The subject of data set [18] is Mus musculus. In words: Increase in HDL cholesterol level in human Apo-A-I transgenic C57BL/6 mouse at 5 mg/kg, po. Format: functional.

Usually bioavailability stands for the share of a dose that reaches the circulation, judged against a reference dose that is usually intravenous. Broadly, the half-life is the time in which the quantity being followed falls by half. The EC50 is the concentration needed to bring the measured effect to its halfway point. As usually defined, the clearance is the volume of plasma or blood freed of the substance per unit of time.

With `Cc1nc(-c2ccc(C(F)(F)F)cc2)sc1C(=O)NCc1ccc(OC(C)(C)C(=O)O)cc1` [GW590735], the Activity in the data set on Mus musculus [1] came to 37%; in the data set on Mus musculus [6], 61%; with Mus musculus [7], 48%; in the data set on Mus musculus [8], 65%; in the data set on Mus musculus [10] it was 51%; in the data set on Mus musculus [11], 65%. For the same compound, the Activity was determined as 95% in data set [13], 69% in the data set on Mus musculus [14] and 86% in the data set with Mus musculus [18]. The compound also had a Cp in the data set on Canis familiaris of 1449 ng/mL. Moreover, the bioavailability in data set [2] worked out at 47%; in [16], 85%. For the same compound, the Vd in data set [3] is 1 L/kg. This compound also had a half-life in data set [4] of 2.4 h. Moreover, the values for the EC50 in data set [5], in data set [12] and in [15] were 1 µM, 2.83 µM and 0.015 µM, respectively. In [9], this compound returned a concentration at 1.5 h of 1460 ng/mL. This compound also gave a clearance in data set [17] of 5 mL/min/kg.

(Values after ChEMBL document CHEMBL1141367, “Substituted 2-[(4-aminomethyl)phenoxy]-2-methylpropionic acid PPARalpha agonists. 1. Discovery of a novel series of potent HDLc raising agents” (J Med Chem, 2007).)
